In patent US8134015B2, “Compound inhibiting in vivo phosphorous transport and medicine containing the same” (Kyowa Hakko Kirin Co., Ltd., priority 2003, dated 2012) one finds IC50 data, which are given here for eleven molecules.

Structures are written as SMILES. pIC50: −log10 of the molar value.

The assay has as its target T1, rat NaPi-2b (Rattus norvegicus, UniProt Q9JJ09).
T1 construct: expressed in transfected cells; host or cells: Xenopus oocytes injected with cRNA
T1 sequence (Q9JJ09 1-695): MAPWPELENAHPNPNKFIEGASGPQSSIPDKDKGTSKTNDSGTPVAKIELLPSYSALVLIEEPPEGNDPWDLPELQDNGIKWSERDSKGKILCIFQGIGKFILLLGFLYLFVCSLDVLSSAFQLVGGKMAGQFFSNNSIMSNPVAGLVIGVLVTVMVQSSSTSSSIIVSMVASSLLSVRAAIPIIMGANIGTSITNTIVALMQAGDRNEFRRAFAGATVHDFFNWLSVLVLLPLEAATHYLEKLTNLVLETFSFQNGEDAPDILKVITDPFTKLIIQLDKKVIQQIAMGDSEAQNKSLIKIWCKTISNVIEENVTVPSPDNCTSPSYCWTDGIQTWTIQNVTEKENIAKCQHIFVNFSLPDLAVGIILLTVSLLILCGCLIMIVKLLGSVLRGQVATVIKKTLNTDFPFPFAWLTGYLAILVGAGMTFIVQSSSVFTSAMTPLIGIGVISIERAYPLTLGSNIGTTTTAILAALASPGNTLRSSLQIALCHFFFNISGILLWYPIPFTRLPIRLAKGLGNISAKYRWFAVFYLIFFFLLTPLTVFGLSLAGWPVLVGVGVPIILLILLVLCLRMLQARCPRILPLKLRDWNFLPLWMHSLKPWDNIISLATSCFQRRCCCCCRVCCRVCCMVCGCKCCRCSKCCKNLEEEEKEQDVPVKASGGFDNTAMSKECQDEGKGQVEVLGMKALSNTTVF
As to the kind of experiment: Sodium-dependent phosphate uptake of Xenopus oocytes which expressed NaPi-2b (32P). As to conditions: Xenopus oocytes expressing rat NaPi-2b, 32P radioactive phosphorus; read-out: IC50 (phosphate uptake inhibitory activity). The assay is classed as cell-based. In short, it runs like this:
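Rat small-intestine NaPi-2b cRNA injected into Xenopus oocytes, expressed for 2 days. Sodium-dependent phosphate uptake measured with 32P; % inhibition at 300 and 100 μM taken from the same inhibition curve.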

As usually defined, the pIC50 is −log10 of the IC50, conventionally taken in molar units. In the case of `Cc1ccc(/C=N/NC(=O)c2cc(Cl)ccc2NC(=O)c2cccc(CS(=O)(=O)Cc3ccco3)c2)cc1C` [Compound 686, N-[4-Chloro-2-(3,4-dimethyl-benzylidene-hydrazinocarbonyl)-phenyl]-3-(furan-2-ylmethanesulfonylmethyl)-benzamide], the pIC50 was over 5.52.

For the molecule `Cc1ccc(/C=N/NC(=O)c2cc(Cl)ccc2NC(=O)c2cccc(C[S+]([O-])Cc3ccco3)c2)cc1C` (centres unmarked) [Compound 687, N-[4-Chloro-2-(3,4-dimethyl-benzylidene-hydrazinocarbonyl)-phenyl]-3-(furan-2-ylmethanesulfinylmethyl)-benzamide], the pIC50 is over 5.52.

For `O=C(Nc1ccc(Cl)cc1C(=O)N/N=C/c1ccc(Cl)c(C(F)(F)F)c1)c1cccc(CS(=O)(=O)Cc2ccco2)c1` [Compound 688, N-[4-Chloro-2-(4-chloro-3-trifluoromethyl-benzylidene-hydrazinocarbonyl)-phenyl]-3-(furan-2-ylmethanesulfonylmethyl)-benzamide], the pIC50 is over 5.52.

In the case of `O=C(Nc1ccc(Cl)cc1C(=O)N/N=C/c1ccc(Cl)c(C(F)(F)F)c1)c1cccc(C[S+]([O-])Cc2ccco2)c1` (centres unmarked) [Compound 689, N-[4-Chloro-2-(4-chloro-3-trifluoromethyl-benzylidene-hydrazinocarbonyl)-phenyl]-3-(furan-2-ylmethanesulfinylmethyl)-benzamide], the pIC50 was over 5.52.

For the molecule `CN(CCCCCCN(C)Cc1cccc(C(=O)Nc2ccc(Cl)cc2C(=O)N/N=C/c2ccc(Cl)c(C(F)(F)F)c2)c1)Cc1cccc(C(=O)Nc2ccc(Cl)cc2C(=O)N/N=C/c2ccc(Cl)c(C(F)(F)F)c2)c1` [Compound 690, N1-[4-Chloro-2-({2-[(E)-1-(4-chloro-3-trifluoromethyl-phenyl)methylidene]hydrazino}carbonyl)phenyl)-3-{[{6-[(3-{[4-chloro-2-({2-[(E)-1-(4-chloro-3-trifluoromethyl-phenyl)methylidene]hydrazino}-carbonyl}anilino}carbonyl}benzyl}(methyl)amino)hexyl)(methyl)amino]-methyl]benzamide], the pIC50 was 4.06.

For `O=C(Nc1ccc(Cl)cc1C(=O)N/N=C/c1cccc(F)c1)c1cccc(CSCCS(=O)(=O)O)c1` [Compound 691, 2-{3-[4-Chloro-2-(3-fluoro-benzylidene-hydrazinocarbonyl)-phenylcarbamoyl]-benzylsulfanyl}-ethanesulfonic acid], the pIC50 is 4.01.

With `Cc1cccc(/C=N/NC(=O)c2cc(Cl)ccc2NC(=O)c2cccc(CSCCS(=O)(=O)O)c2)c1` [Compound 692, 2-{3-[4-Chloro-2-(3-methyl-benzylidene-hydrazinocarbonyl)-phenylcarbamoyl]-benzylsulfanyl}-ethanesulfonic acid], the pIC50 was 4.00.

As for `Cc1ccc(/C=N/NC(=O)c2cc(Cl)ccc2NC(=O)c2cccc(CSCCS(=O)(=O)O)c2)cc1` [Compound 693, 2-{3-[4-Chloro-2-(4-methyl-benzylidene-hydrazinocarbonyl)-phenylcarbamoyl]-benzylsulfanyl}-ethanesulfonic acid], the pIC50 is 4.15.

For `Cc1ccc(/C=N/NC(=O)c2cc(Cl)ccc2NC(=O)c2cccc(CSCCS(=O)(=O)O)c2)cc1C` [Compound 694, 2-{3-[4-Chloro-2-(3,4-dimethyl-benzylidene-hydrazinocarbonyl)-phenylcarbamoyl]-benzylsulfanyl}-ethanesulfonic acid], the pIC50 is 4.41.

For `O=c1c2cc(Br)ccc2nc(-c2cccc(CSCCO)c2)n1/N=C/c1ccc(F)cc1` [Compound 695, 6-Bromo-3-[(4-fluoro-benzylidene-)-amino]-2-[3-(2-hydroxy-ethylsulfanylmethyl)-phenyl]-3H-quinazolin-4-one], the pIC50 is 5.17.

Regarding `Cc1ccc(/C=N/n2c(-c3cccc(CSCCO)c3)nc3ccc(Br)cc3c2=O)cc1` [Compound 696, 6-Bromo-2-[3-(2-hydroxy-ethylsulfanylmethyl)-phenyl]-3-[(4-methyl-benzylidene-)-amino]-3H-quinazolin-4-one], the pIC50 was 5.35.
